The record followed here is a melting point compilation (Tetko et al.; mined from patent text by program, amines drawn as free bases though some values may be those of a salt).

`O=C(O)CCCc1cc2nc(Cl)ccc2n1S(=O)(=O)c1ccc2ncccc2c1` showed a melting point of 153 to 162 °C.

Regarding `O=C(O)COc1c(I)cc(C(=O)c2cccs2)cc1I`, the melting point was 160 °C. Turning to `CCCCN1C(=O)NC(Cc2cc(OC)c(OC)cc2OC)C1=O` (stereo not drawn), the melting point stood at 122 °C. For the molecule `CCCCc1nn(-c2cc([N+](=O)[O-])ccc2Br)c(=O)[nH]1`, the melting point was in the range of 125 to 127 °C.

Turning to `COc1cc(CN2CCNC(CO)C2)cc(OC)c1OC` (stereo not drawn), the melting point is 93 °C.

In turn, `N#CC(C#N)=C1Sc2nc3cc([N+](=O)[O-])c([N+](=O)[O-])cc3nc2S1` gave a melting point greater than 300 °C. The molecule `CC(=O)Nc1ccc([N+](=O)[O-])c(C=O)c1` came in with a melting point of 131 to 135 °C. For `CCOC(=O)c1cnc2cc(Cl)ccc2c1N=[N+]=[N-]`, the melting point was determined as 94.5 °C. Molecule `Cc1nc2c(OCc3ccccc3)cc(Br)cc2n1COCC[Si](C)(C)C` registered a melting point of 94 to 95 °C. In the case of `CCC(=O)NC1CCc2c([nH]c3ccccc23)C1` (stereo not drawn) it was 169 to 170 °C; in that of `COc1ccccc1-c1cc(N2CCN(Cc3ccc(C)cc3)CC2)n2ccc(=O)ccc12`, 186 °C; in that of `CN1C(=O)N=NC1CSc1ccccc1OCCc1coc(-c2ccccc2)n1` (stereo not drawn), 130 to 132 °C.

Molecule `CC(C)c1ccccc1NC(=O)c1ccccc1C(c1ccc(O)cc1)c1ccc(O)cc1` returned a melting point of 225 to 227 °C. The molecule `CCOCc1nc2c(N)nc3ccccc3c2n1NC1CCCCC1` had a melting point of 143 to 145 °C. Molecule `N#Cc1ccc(N(Cc2ccc(Br)cc2)n2cnnc2)cc1-c1ccc(O)cc1` had a melting point of 222 to 224 °C.

For the molecule `N#Cc1ccc(C(=O)n2ccnc2)cc1`, the melting point was in the range of 152 to 154 °C. Molecule `N#CC(Cc1ccccn1)(c1ccc(F)cc1)c1ccc([N+](=O)[O-])c(C(F)(F)F)c1` (stereo not drawn) returned a melting point of 118 to 119 °C. For `CCCCCCCCCCCCSc1nnn(C(C(=O)O)c2ccccc2)n1` (stereo not drawn), the melting point fell in the range of 64 to 67 °C.

`CCOC(=O)c1c[nH]cc1C(=O)OCC` had a melting point of 148 to 149 °C.

Consider `CCCCCCCCCCCCCCCCSCC1(CS(=O)(=O)CCCI)CCCO1` (stereo not drawn), for which the melting point is 36 to 37 °C. In the case of `COc1ccc(-c2cc3cc(Cl)cc(Cl)c3o2)cc1` it was 172 to 174 °C; in that of `Nc1cc(Oc2ccc(C(F)(F)F)cc2Cl)ccc1[N+](=O)[O-]`, 86 to 92 °C. As to `CC1=CC2=C(C)C3(CC3)C(C)(O)C(=O)C2=C1` (stereo not drawn), the melting point is 138 to 140 °C. With `CC1(C)CC(S(=O)(=O)Cc2c(C(F)(F)F)nn(-c3ccccc3)c2Cl)=NO1` the figure was 132 to 133 °C; with `CCOC(=O)c1cn(-c2ccc(F)cc2F)c2nc(N3CCN(C(C)=O)CC3)c(F)cc2c1=O`, 219 to 220 °C; with `O=C(O)C(=O)CC(=O)c1cccn1Cc1ccc(-c2ccccc2)cc1`, 189 to 191 °C.

`COc1ccc(/C=C(\C#N)c2cccc(Br)c2)cc1OC1CCCC1` registered a melting point of 90 to 91.5 °C. Consider `CCN(C)c1cc(F)cc(C(=O)Nc2ccc(OCCN3CCOCC3)c3ccccc23)c1`, for which the melting point was in the range of 126 to 128 °C. For the molecule `COc1ccc(C2=CC(=O)CC2)cc1OC1CCCC1`, the melting point was 136 to 137 °C.

In turn, `O=C(O)c1cccc(P(c2ccccc2)c2ccccc2)n1` registered a melting point of 122 °C.

As to `OC(CCl)(Cc1ccc(Cl)cc1Cl)c1ccc(-c2ccccc2)cc1` (stereo not drawn), the melting point amounted to 84 °C. `O=C(O)C1=Cc2cc(C(F)(F)F)ccc2NC1C(F)(F)F` (stereo not drawn) yielded a melting point of 150 to 156 °C. With `CC(C)(C)C(=O)Nc1cc(Cl)ccn1` the figure was 86 to 87 °C. Regarding `COc1cccc(CCOc2cccc(-c3cccc(C(=O)O)c3)n2)c1`, the melting point lay within 156 to 157 °C. Regarding `N#CCc1c(Cl)ccc2cc(Cl)cnc12`, the melting point was 152 °C.

In turn, `CC[C@H](C)[C@H](NC(=O)[C@@H]1CCCN1CC(=O)[C@H](Cc1ccccc1)NC(=O)OCc1ccccc1)C(=O)NCC(C)C` came in with a melting point of 80 to 81 °C.

Molecule `O=C1N(Cc2ccc(=O)[nH]c2)c2ccccc2C12COc1cc3c(cc12)OCCO3` (stereo not drawn) gave a melting point of 249 to 250 °C. The molecule `C(=C(c1ccccc1)N1CCCCC1)C1=NCCC1` yielded a melting point of 123 to 124 °C. As to `CCn1c(=O)n(CCc2ccc(C)cc2)c(=O)n(C(C)(C)C)c1=O`, the melting point came out at 64 °C. `O=C1CCN(C(=O)N2CCN3C(=O)OC(c4ccccc4)(c4ccccc4)C3C2)c2ccccc21` (stereo not drawn): the melting point fell in the range of 202 to 205 °C. In turn, `C=CCC(NC(=O)CC)C(=O)O` (stereo not drawn) yielded a melting point of 96 to 98 °C.

Molecule `CCCCCCCCCCCCc1ccc(S(=O)(=O)Nc2nnc(S(N)(=O)=O)s2)cc1` registered a melting point of 249 to 250 °C. `c1ccc(-c2ccc(C3CN4CCC3CC4)cc2)cc1` (single isomer, unassigned; (+)): the melting point lay in the range of 85 to 86 °C. With `Cc1ccc(-n2nc(C(C)(C)C)cc2NC(=O)Nc2ccc(N(C)c3ccncc3)c3ccccc23)cc1` the figure was 174 to 177 °C.

`COc1cc(C(=O)N2CC3CC(C2)CN(C(C)C)C3)cc(OC)c1OC` had a melting point of 67.5 to 69.5 °C.

The molecule `Nc1c(I)c(C(=O)NCC(O)CO)c(I)c(C(=O)NCC(O)CO)c1I` (single isomer, unassigned; (-)) came in with a melting point of 203 °C.

In the case of `CSc1nn(-c2c(Cl)cc(C(F)(F)F)cc2Cl)c(N)c1S(=O)(=O)c1cccc(C(F)(F)F)c1`, the melting point fell in the range of 201 to 203 °C.

Take `CC(=O)c1c(CBr)c(CBr)c(C(C)=O)c2c1C(=O)c1ccccc1C2=O`: the melting point lay within 225 to 227 °C.

Consider `Cn1nc(C(F)(F)F)cc1Oc1cccc(-c2nc(C(F)(F)F)no2)n1`, for which the melting point lay in the range of 91 to 93 °C. In the case of `COc1ccc(C(=O)Oc2ccc(C(=O)O)cc2)cc1C12CC3CC(CC(C3)C1)C2` it was 265 to 267 °C; in that of `CCCCCCN(CCCCCC)C(Nc1ccc(-c2ccccc2)cc1)=C1C(=O)COC1=O`, 138 to 140 °C; in that of `CC(=O)Nc1cccc(-c2csc3nc(C45CC6CC(CC(C6)C4)C5)cn23)c1`, 98 to 100 °C. Molecule `CCOC(=O)C(=O)Nc1c([N+](=O)[O-])sc2ccc([N+](=O)[O-])cc12` displayed a melting point of 178 to 183 °C. In the case of `O=C1c2cc([N+](=O)[O-])cc3c(N4CCCC4)c([N+](=O)[O-])cc(c23)C(=O)N1O` it was 249 to 250 °C; in that of `Cn1c2c(c3ccccc31)Cc1c(CO)c(CO)c(-c3ccc(Cl)cc3)n1C2`, 238 to 239 °C; in that of `COC(=O)c1cc(O)c(N=Nc2ccccc2)c(OC(C)=O)c1`, 162 °C. Consider `Cc1nc2c(O[C@H]3c4ccccc4C[C@@H]3O)cccn2c1CO`, for which the melting point fell in the range of 174 to 175 °C. Molecule `CCc1nc2c(N)nc3cccnc3c2n1CCCCCC(N)=O` registered a melting point of 220 to 221 °C. In the case of `CCOC(=O)C(=CNC(C)(C)C)C(=O)c1cc(F)c(Cl)nc1Cl`, the melting point amounted to 78 °C. With `N#Cc1cnc2sc(-c3cccc(C=O)c3)cc2c1Cl` the figure was greater than 250 °C; with `NC(=O)N(O)CCNC(=O)c1cccc(Oc2cccc(C(F)(F)F)c2)c1`, 126 to 128 °C. As for `CCCC12CCC3=C(CCc4cc(OC)ccc43)C1CCC21OCCO1` (stereo not drawn), the melting point was in the range of 119 to 120 °C. Regarding `COC(=O)c1c(C)c(OC)cc(O[Si](C)(C)C(C)(C)C)c1C=O`, the melting point was 125 to 131 °C.

`Cc1cc(-c2cc(C(F)(F)F)n3ncc(-c4cccnc4)c3n2)ccc1Cl` came in with a melting point of 193 °C. `COc1nc2ncccc2c2nc(S(=O)(=O)Nc3c(Cl)cccc3Cl)nn12`: the melting point was 290 to 293 °C. In the case of `COc1cc2ccc3c4cc5c(cc4cnc3c2cc1OC)OCO5` it was 275 to 277 °C; in that of `O=C(c1cc(-c2ccccc2)c(=O)n2c1-c1ccccc1C2)N1CCOCC1`, 262 to 266 °C. The molecule `CN1C(=O)N(CC(=O)COC(C)(C)C)C(=O)C1(C)C` had a melting point of 61 to 63 °C.

Consider `N#CC(Cl)CC(Cl)(Cl)C(=O)Oc1ccccc1` (stereo not drawn), for which the melting point lay in the range of 51.5 to 52.5 °C. With `O=C(NCCNCCNC(=O)C(F)(F)F)C(F)(F)F`, the melting point was 68 to 70 °C. As for `Cc1ccc2nc(NC(=O)c3ccc(C(C)(C)CCC(=O)O)cc3)cn2c1`, the melting point is 280 to 282 °C.

`Cc1ccc2oc(C(=O)N[C@H]3CCN(C(=O)c4cc(C(F)(F)F)cc(C(F)(F)F)c4)[C@H](Cc4ccc(Cl)cc4)C3)cc(=O)c2c1`: the melting point fell in the range of 240 to 241 °C. For the molecule `CC(CO)Nc1cc(Oc2nn(C)c(C(F)(F)F)c2Cl)ccc1N` (stereo not drawn), the melting point was 110 to 112 °C. Take `FC(F)(F)c1cc(Nc2nc3ccccc3o2)ccc1Cl`: the melting point lay in the range of 199 to 200 °C. In turn, `Cc1c(F)c(F)c(C(N)=O)c(F)c1F` returned a melting point of 157 to 158 °C. In turn, `CCNC(=O)c1ccc(N2CCN(Cc3cc4c(c(OC)c3)OC(C)C(=O)N4)CC2)c(Cl)c1` (stereo not drawn) returned a melting point of 119 to 121 °C.

`NC(=CC(=O)c1ccncc1)C1CC1` gave a melting point of 124 to 125 °C. Molecule `CCN(CC)c1c(C(=O)O)ccc(OC)c1OC` had a melting point of 57 to 62 °C. `N#Cc1cnn(-c2ccc(NN)nn2)c1N`: the melting point is 264 to 266 °C. On to `Cc1c(-c2cc(C(C)(C)C)c(O)c(C(C)(C)C)c2)nc2n1CCS2`, for which the melting point lay in the range of 258 to 261 °C.

Turning to `CC(Sc1nc(N)cc(Cl)n1)c1cc2ccccc2cn1` (stereo not drawn), the melting point was 179 to 180 °C.

The molecule `Cc1cc(NC(N)=O)cc(C)c1NC(=O)CN1CCN(CCCC(c2ccc(F)cc2)c2ccc(F)cc2)C(C(N)=O)C1` (stereo not drawn) returned a melting point of 142 °C. In the case of `O=C(c1ccc([N+](=O)[O-])cc1Cl)N1CCCCc2ccccc21` it was 112 to 114 °C; in that of `CCCn1nnc2c(Nc3ccc(C(C)C)cc3Br)nc(C)nc21`, 80 to 81 °C; in that of `CCCCn1c(C)c(C)cc(Oc2nc3ccccc3o2)c1=O`, 106 to 108 °C. `COc1cc(C=Cc2ccc(Cl)nn2)cc(OC)c1OC` gave a melting point of 162 to 164 °C. Consider `CCCCCCC(=N)NC(=S)Nc1ccc(Cl)c(Cl)c1`, for which the melting point lay within 89 to 90 °C. `CCOC(=O)C(C)(C(C)=O)c1ccc(N)c(NC)c1C#N` (stereo not drawn) returned a melting point of 118 to 123 °C.
